Test results reported in US20220259202A1, “1-(4-(AMINOMETHYL)BENZYL)-2-BUTYL-2H-PYRAZOLO[3,4-C]QUINOLIN-4-AMINE DERIVATIVES AND RELATED COMPOUNDS AS TOLL-LIKE RECEPTOR (TLR) 7/8 AGONISTS, AS WELL AS ANTIBODY DRUG CONJUGATES THEREOF FOR USE IN CANCER THERAPY AND DIAGNOSIS” (SUTRO BIOPHARMA, INC., priority 2019, published 2022).

Assays:
mouse TLR13 = molecular target: T1, mouse TLR13 (Mus musculus, UniProt Q6R5N8); assay: HEK293 SEAP reporter assay, other TLRs (Biological Example 3); assay type: cell-based; conditions: 16 hrs, up to 1 μM
T1 construct: host or cells: HEK293
T1 sequence (Q6R5N8 69-991): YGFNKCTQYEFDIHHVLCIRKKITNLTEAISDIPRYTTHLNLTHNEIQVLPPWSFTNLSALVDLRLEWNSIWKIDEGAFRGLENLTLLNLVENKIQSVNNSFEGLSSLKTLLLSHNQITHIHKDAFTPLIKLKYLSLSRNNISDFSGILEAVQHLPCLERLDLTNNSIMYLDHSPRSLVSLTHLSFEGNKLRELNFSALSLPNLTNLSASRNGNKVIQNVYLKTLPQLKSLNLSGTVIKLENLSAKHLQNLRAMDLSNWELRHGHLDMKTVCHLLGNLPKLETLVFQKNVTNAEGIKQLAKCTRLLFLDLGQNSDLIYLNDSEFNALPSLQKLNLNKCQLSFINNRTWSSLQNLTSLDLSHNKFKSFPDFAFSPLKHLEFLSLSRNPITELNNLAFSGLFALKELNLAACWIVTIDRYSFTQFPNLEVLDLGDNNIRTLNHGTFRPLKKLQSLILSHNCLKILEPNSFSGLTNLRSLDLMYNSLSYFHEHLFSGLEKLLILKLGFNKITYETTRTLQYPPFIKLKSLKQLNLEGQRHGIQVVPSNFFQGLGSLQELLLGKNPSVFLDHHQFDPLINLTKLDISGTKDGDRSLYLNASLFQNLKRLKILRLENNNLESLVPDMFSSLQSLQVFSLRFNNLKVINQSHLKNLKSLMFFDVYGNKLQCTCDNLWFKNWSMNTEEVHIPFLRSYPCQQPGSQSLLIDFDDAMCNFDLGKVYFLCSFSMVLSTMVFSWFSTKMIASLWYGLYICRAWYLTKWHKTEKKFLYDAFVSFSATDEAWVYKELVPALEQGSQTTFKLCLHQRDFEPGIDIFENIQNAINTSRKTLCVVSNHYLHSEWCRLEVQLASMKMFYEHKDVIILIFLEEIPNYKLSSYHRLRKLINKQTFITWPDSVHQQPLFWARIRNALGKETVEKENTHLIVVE
Source text: (§1) In this example, the activity of the Compound 1 to stimulate different human and mouse TLR pathways was investigated on HEK293 cells transfected with inducible SEAP (secreted embryonic alkaline phosphatase) reporter genes and also expressing different human TLRs (TLR2, TLR3, TLR4, TLR5, TLR7, TLR8, TLRS) or mouse TLRs (TLR2, TLR3, TLR4, TLR5, TLR7, TLR8, TLR13). Compound A
(§2) HEK293 reporter cell lines were purchased from Invivogen and cell lines were maintained in manufacture recommended culture medium with required supplemental antibiotics. On the day of assay, the cells were harvested with Accutase and counted by the Vi-CELL Cell Viability Analyzers. Cells were re-suspended in HEK blue detection medium and a total of 10000 cells were seeded in each well of a 384-well flat bottom plate. […] Assay plates were cultured at 37° C. in a CO2 incubator for 16 hrs. HEK-Blue™ Detection medium changes to a purple/blue color in the presence of secreted SEAP, which can be detected by spectrophotometry at 620-655 nm. Data was fitted with non-linear regression analysis, using a log(inhibitor) vs. response-variable slope, 3-parameter fit with GraphPad Prism.

mouse TLR4 = molecular target: T2, mouse TLR4 (Mus musculus, UniProt Q9JHF9+Q9QUK6); assay: as above; assay type: cell-based; conditions: 16 hrs, up to 1 μM
T2 construct: host or cells: HEK293
T2 sequence (Q9QUK6 26-835): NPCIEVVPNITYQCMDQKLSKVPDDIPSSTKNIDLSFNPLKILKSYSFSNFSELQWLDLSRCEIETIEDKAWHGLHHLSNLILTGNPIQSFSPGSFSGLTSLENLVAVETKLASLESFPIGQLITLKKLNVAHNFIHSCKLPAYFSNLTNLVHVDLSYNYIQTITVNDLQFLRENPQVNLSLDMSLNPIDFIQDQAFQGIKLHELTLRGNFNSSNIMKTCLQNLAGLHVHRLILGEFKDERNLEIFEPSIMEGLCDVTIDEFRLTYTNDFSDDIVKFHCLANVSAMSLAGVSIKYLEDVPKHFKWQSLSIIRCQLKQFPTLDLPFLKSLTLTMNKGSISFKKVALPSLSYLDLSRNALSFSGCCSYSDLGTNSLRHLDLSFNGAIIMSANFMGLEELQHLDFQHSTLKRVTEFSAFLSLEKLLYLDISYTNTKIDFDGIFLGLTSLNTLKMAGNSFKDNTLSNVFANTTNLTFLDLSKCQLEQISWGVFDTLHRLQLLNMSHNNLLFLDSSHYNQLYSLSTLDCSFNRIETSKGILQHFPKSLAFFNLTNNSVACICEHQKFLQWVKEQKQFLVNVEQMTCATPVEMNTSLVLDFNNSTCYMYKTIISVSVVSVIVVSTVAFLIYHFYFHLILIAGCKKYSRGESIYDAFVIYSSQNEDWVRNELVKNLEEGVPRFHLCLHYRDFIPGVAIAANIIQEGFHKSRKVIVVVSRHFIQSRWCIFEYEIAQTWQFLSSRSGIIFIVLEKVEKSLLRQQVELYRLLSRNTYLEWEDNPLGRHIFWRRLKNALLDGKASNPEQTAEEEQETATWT
T2 sequence (Q9JHF9 19-160): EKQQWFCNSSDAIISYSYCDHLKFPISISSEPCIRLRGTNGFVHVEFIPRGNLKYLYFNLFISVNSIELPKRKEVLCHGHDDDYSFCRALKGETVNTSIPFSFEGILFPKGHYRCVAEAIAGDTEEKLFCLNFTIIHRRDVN
Source text: as §1, §2

EC50 (mouse TLR13)	EC50 (mouse TLR4)	Structure (SMILES)
> 1000 nM	> 1000 nM	CCCCn1nc2c(N)nc3ccccc3c2c1Cc1ccc(CN)cc1 [Compound 1, 1-(4-(aminomethyl)benzyl)-2-butyl-2H-pyrazolo[3,4-c]quinolin-4-amine]
> 1000 nM	> 1000 nM	CCCCc1nc2c(N)nc3ccccc3c2n1Cc1ccc(CN)cc1 [Compound A, reference compound]
